{"source": "patent US20110052740A1", "about": "“Skin Circulation-Improving Agent And Skin Temperature-Elevating Agent” (SHISEIDO COMPANY, LTD., priority 2008, published 2011)", "key": {"[1]": {"test": "Study of effect on skin temperature (smelling of test substance, body temperature logger)", "assay_type": "in vivo, human", "details": "for skin temperatures of the fingers: one person, vapor inhaled 3 min from impregnated cotton piece under the nose, 25° C., humidity 50%, FIG. 1; for skin temperatures of the cheeks / skin temperatures of the toes: smell taken with the nose, not illustrated by data", "method": "The skin temperature of fingers was measured by use of 8ch Body Temperature Logger (supplied by Nikkiso-Therm Co., Ltd.), and a change in skin temperature due to smelling of a test substance was investigated. The effect on the peripheral skin temperature was thus studied. A solvent extract of a common jasmine (Jasminum officinale) belonging to the Jasminum genus in the Oleaceae family was used as a control, and the evaluation was made in the same manner.\nA person was employed as a subject, and the test was made in a constant temperature and humidity room at a temperature of 25° C. and a humidity of 50%.\nThe subject was seated on an easy chair and allowed to take a rest for 30 minutes. […] The change in peripheral skin temperature was evaluated by use of a value (T value) obtained by subtracting a mean value of the skin temperatures at the two sites of the chest from the mean value of the skin temperatures at the two fingertip sites.\nOne sequence of measurement tests was composed of (A) a rest for three minutes, (B) attaching of an odorless cotton piece under the nose for three minutes, (C) a rest for three minutes, (D) attaching of a test sample-impregnated cotton piece under the nose for three minutes, (E) a rest for three minutes, (F) attaching of an odorless cotton piece under the nose for three minutes, and (G) a rest for three minutes. The skin temperature was measured successively during the one sequence, and the T values were calculated.\nThe T values obtained at the times of (B) and (F), at each of which the odorless cotton piece was attached, were taken as the controls and were compared with the T value obtained at the time of (D), at which the vapor of the test sample was inhaled. The effect of each substance on the skin temperature was thus investigated. Specifically, the formula shown below was utilized.\nSkin temperature change (° C.)=T value (D)−(mean value of T value (B) and T value (F))"}, "[2]": {"test": "Study of effect on skin blood circulation (laser Doppler flow-meter, smelling of test sample)", "assay_type": "in vivo, human", "details": "general statement of the inventors' findings; no data shown for substances other than the Arabian jasmine extract", "method": "The skin blood circulation rate of fingers was measured by use of the laser Doppler flow-meter (ADVANCE LASER FLOW-METER ALF21), and the effect of the Arabian jasmine extract on the skin blood circulation was evaluated.\nSix persons (men and women) were employed as subjects, and the test was made in a constant temperature and humidity room having been adjusted at a temperature of 22° C. and a humidity of 45%. Each of the subjects was seated on an easy chair and allowed to take a rest for 30 minutes. Thereafter, a probe of the flow-meter was fitted to the inner surface side of the third finger of the right hand of the subject, and a change in blood circulation rate with the passage of time was recorded. One sequence of measurement tests was composed of (A) a rest for three minutes, (B) attaching of an odorless cotton piece under the nose for three minutes, (C) a rest for three minutes, (D) attaching of a test sample-impregnated cotton piece under the nose for three minutes, (E) a rest for three minutes, (F) attaching of an odorless cotton piece under the nose for three minutes, and (G) a rest for three minutes. The blood circulation rate was measured successively during the one sequence. […]"}, "sympathetic nerve": {"test_system": "sympathetic nerve", "test": "Sympathetic nerve suppressing effect (confirmed by the inventors, no method given)", "details": "statement without data"}}}
{"compound": "CCCCC1OC(=O)CC1C", "note": "(stereo not shown) [3-methyloctano-4-lactone]", "values": [{"measurement": "skin temperatures of the fingers", "setting": "[1]", "result": "increased"}, {"measurement": "skin temperatures of the cheeks", "setting": "[1]", "result": "could be increased"}, {"measurement": "skin temperatures of the toes", "setting": "[1]", "result": "could be increased"}, {"measurement": "rate of the skin blood circulation (summary of findings)", "setting": "[2]", "result": "increases"}, {"measurement": "sympathetic nerve suppressing effect", "setting": "sympathetic nerve", "result": "has a sympathetic nerve suppressing effect"}]}
{"compound": "CC(=O)OC1CC2CCC1(C)C2(C)C", "note": "(stereo not shown) [bornyl acetate]", "values": [{"measurement": "skin temperatures of the fingers", "setting": "[1]", "result": "increased"}, {"measurement": "skin temperatures of the cheeks", "setting": "[1]", "result": "could be increased"}, {"measurement": "skin temperatures of the toes", "setting": "[1]", "result": "could be increased"}, {"measurement": "rate of the skin blood circulation (summary of findings)", "setting": "[2]", "result": "increases"}, {"measurement": "sympathetic nerve suppressing effect", "setting": "sympathetic nerve", "result": "has a sympathetic nerve suppressing effect"}]}
